Consider 13 molecules from ChEMBL document CHEMBL1134747, “Synthesis and antifungal activities of novel 1,3-beta-D-glucan synthase inhibitors. Part 1” (Bioorg Med Chem Lett, 2001).

≈ marks a conversion by molar mass, not a printed value. Bounds are passed on as bounds.

For test [1], the system named is Mus musculus. In words: In vivo antifungal activity against systemic candidiasis in mouse model after a single iv administration. Type of test: functional.
The target of test [2] is Beta-1,3-glucan synthase (Candida albicans, UniProt O13428). Nature of the test: Inhibition of 1,3-beta-D-glucan synthase (GS) from candida albicans.
Test [3] relates to Candida albicans. Nature of the test: In vitro antifungal activity against Candida albicans CY1002 in the presence of 80% calf serum. Type of test: functional, organism-based.
The subject of test [4] is Candida albicans. In words: In vitro antifungal activity against Candida albicans […] in the absence of 80% calf serum. In kind it is functional, organism-based.
Test [5] can be described thus: Hepatotoxicity using isolated ICR mouse hepatocytes by inclusion body formation assay (In Vitro). In kind it is functional, cell-based. The settings on record: Hepatocyte.
Test [6] can be described thus: Hepatotoxicity determined using isolated ICR mouse hepatocytes by inclusion body formation assay (In Vitro). In kind it is functional, cell-based. The note with it: Hepatocyte.

Sequence of Beta-1,3-glucan synthase (O13428 whole entry): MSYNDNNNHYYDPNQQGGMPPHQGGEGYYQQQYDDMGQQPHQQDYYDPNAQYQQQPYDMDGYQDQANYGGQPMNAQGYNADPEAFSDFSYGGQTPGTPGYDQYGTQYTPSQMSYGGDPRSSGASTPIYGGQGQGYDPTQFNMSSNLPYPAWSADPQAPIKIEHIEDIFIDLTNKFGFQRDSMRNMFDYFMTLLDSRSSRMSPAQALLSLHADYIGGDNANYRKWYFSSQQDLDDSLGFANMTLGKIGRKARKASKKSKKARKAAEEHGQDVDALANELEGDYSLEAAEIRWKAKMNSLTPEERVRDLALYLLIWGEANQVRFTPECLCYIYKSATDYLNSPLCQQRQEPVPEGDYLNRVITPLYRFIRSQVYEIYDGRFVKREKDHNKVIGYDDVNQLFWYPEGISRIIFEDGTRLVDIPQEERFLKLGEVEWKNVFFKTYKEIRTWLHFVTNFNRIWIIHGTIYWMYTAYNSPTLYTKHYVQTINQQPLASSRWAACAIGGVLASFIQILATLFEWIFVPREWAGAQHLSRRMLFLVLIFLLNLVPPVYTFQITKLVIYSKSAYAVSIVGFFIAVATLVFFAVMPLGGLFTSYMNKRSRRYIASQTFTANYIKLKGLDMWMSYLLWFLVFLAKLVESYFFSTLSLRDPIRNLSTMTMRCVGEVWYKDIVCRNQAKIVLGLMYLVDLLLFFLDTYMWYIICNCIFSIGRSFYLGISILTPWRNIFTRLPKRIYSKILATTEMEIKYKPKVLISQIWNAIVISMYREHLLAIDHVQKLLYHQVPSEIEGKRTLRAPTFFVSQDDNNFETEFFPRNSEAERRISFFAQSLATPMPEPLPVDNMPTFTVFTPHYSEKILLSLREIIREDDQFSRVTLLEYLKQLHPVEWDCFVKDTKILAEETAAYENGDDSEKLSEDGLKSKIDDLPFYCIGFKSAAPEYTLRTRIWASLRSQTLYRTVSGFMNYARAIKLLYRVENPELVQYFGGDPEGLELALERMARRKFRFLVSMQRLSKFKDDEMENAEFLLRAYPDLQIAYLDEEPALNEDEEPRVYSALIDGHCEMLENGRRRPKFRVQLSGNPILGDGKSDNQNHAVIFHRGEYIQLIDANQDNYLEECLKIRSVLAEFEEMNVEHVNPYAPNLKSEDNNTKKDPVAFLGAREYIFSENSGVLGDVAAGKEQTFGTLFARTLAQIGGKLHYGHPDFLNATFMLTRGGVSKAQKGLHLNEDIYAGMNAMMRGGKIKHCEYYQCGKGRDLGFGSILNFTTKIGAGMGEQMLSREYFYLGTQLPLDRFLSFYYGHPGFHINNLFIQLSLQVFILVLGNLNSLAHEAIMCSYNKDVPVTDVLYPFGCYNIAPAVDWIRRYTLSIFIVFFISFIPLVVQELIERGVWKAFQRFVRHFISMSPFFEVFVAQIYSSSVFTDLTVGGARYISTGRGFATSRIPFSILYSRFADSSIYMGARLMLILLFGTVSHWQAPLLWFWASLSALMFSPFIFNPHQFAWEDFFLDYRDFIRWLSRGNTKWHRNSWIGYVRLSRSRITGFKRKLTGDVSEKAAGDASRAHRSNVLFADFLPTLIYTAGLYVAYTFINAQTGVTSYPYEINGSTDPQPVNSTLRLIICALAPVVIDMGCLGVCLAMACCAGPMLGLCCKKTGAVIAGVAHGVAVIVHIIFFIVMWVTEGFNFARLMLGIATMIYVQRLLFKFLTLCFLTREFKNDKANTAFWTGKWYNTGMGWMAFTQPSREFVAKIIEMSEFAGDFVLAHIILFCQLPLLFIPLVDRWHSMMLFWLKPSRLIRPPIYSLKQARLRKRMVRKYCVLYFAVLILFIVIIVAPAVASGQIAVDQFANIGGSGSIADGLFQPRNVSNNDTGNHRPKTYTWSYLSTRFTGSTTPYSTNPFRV

The term ED50 denotes the dose that gives a 50% effect, or the effect in half of the subjects. For `CCCCCCCCCCCCC[C@@H]1CC(=O)N[C@@H]([C@@H](C)O)C(=O)N[C@H](C)C(=O)N[C@@H](Cc2ccc(O)cc2)C(=O)N[C@@H](C(C)C)C(=O)N2C[C@H](O)C[C@H]2C(=O)N[C@@H]([C@@H](C)O)C(=O)N[C@@H]([C@@H](C)O)C(=O)N2CC[C@H](O)[C@H]2C(=O)N[C@@H]([C@H](O)CC(N)=O)C(=O)NCC(=O)N[C@@H]([C@@H](C)O)C(=O)N[C@@H](CCCNC(=O)OC(C)(C)C)C(=O)O1`, the ED50 in test [1] was 0.22 mg/kg.
As a reminder, the IC50 is the concentration at which inhibition is half-maximal. `CCCCCCCCCCCCC[C@@H]1CC(=O)N[C@@H]([C@@H](C)O)C(=O)N[C@H](C)C(=O)N[C@@H](Cc2ccc(O)cc2)C(=O)N[C@@H](C(C)C)C(=O)N2C[C@H](O)C[C@H]2C(=O)N[C@@H]([C@@H](C)O)C(=O)N[C@@H]([C@@H](C)O)C(=O)N2CC[C@H](O)[C@H]2C(=O)N[C@@H]([C@H](O)CC(N)=O)C(=O)NCC(=O)N[C@@H]([C@@H](C)O)C(=O)N[C@@H](CCCO)C(=O)O1` yielded an IC50 in test [2] of more than 520 nM.
The molecule `CCCCCCCCCCCCC[C@@H]1CC(=O)N[C@@H]([C@@H](C)O)C(=O)N[C@H](C)C(=O)N[C@@H](Cc2ccc(O)cc2)C(=O)N[C@@H](C(C)C)C(=O)N2C[C@H](O)C[C@H]2C(=O)N[C@@H]([C@@H](C)O)C(=O)N[C@@H]([C@@H](C)O)C(=O)N2CC[C@H](O)[C@H]2C(=O)N[C@@H]([C@H](O)CC(N)=O)C(=O)NCC(=O)N[C@@H]([C@@H](C)O)C(=O)N[C@@H](CCCN(C)C)C(=O)O1` registered an IC50 in test [2] of 45 nM.
For the molecule `CCCCCCCCCCCCC[C@@H]1CC(=O)N[C@@H]([C@@H](C)O)C(=O)N[C@H](C)C(=O)N[C@@H](Cc2ccc(O)cc2)C(=O)N[C@@H](C(C)C)C(=O)N2C[C@H](O)C[C@H]2C(=O)N[C@@H]([C@@H](C)O)C(=O)N[C@@H]([C@@H](C)O)C(=O)N2CC[C@H](O)[C@H]2C(=O)N[C@@H]([C@H](O)CC(N)=O)C(=O)NCC(=O)N[C@@H]([C@@H](C)O)C(=O)N[C@@H](CCCNC(=O)C(N)CCCN)C(=O)O1` (some centres not stated), the IC50 worked out at 0.47 µg/mL in test [3], 0.08 µg/mL (≈ 0.0485 µM) in test [4], 8 nM in test [2] and 10 µg/mL (≈ 6.07 µM) in test [5]. This molecule also displayed an ED50 in test [1] of 0.2 mg/kg.
`CCCCCCCCCCCCC[C@@H]1CC(=O)N[C@@H]([C@@H](C)O)C(=O)N[C@H](C)C(=O)N[C@@H](Cc2ccc(O)cc2)C(=O)N[C@@H](C(C)C)C(=O)N2C[C@H](O)C[C@H]2C(=O)N[C@@H]([C@@H](C)O)C(=O)N[C@@H]([C@@H](C)O)C(=O)N2CC[C@H](O)[C@H]2C(=O)N[C@@H]([C@H](O)CC#N)C(=O)NCC(=O)N[C@@H]([C@@H](C)O)C(=O)N[C@@H](CCN)C(=O)O1` returned an IC50 in test [2] of 19 nM.
In the case of `CCCCCCCCCCCCC[C@@H]1CC(=O)N[C@@H]([C@@H](C)O)C(=O)N[C@H](C)C(=O)N[C@@H](Cc2ccc(O)cc2)C(=O)N[C@@H](C(C)C)C(=O)N2C[C@H](O)C[C@H]2C(=O)N[C@@H]([C@@H](C)O)C(=O)N[C@@H]([C@@H](C)O)C(=O)N2CC[C@H](O)[C@H]2C(=O)N[C@@H]([C@H](O)CC(N)=O)C(=O)NCC(=O)N[C@H]([C@@H](C)O)C(=O)N[C@@H](CCCN(CCN)CCN)C(=O)O1`, the IC50 in test [6] came out at 10 µg/mL (≈ 6.17 µM); in test [3], 0.42 µg/mL; in test [4], 0.1 µg/mL (≈ 0.0617 µM); in test [2], 2 nM. Besides, the ED50 in test [1] was 0.05 mg/kg.
Regarding `CCCCCCCCCCCCC[C@@H]1CC(=O)N[C@@H]([C@@H](C)O)C(=O)N[C@H](C)C(=O)N[C@@H](Cc2ccc(OC)cc2)C(=O)N[C@@H](C(C)C)C(=O)N2C[C@H](O)C[C@H]2C(=O)N[C@@H]([C@@H](C)O)C(=O)N[C@@H]([C@@H](C)O)C(=O)N2CC[C@H](O)[C@H]2C(=O)N[C@@H]([C@H](O)CC(N)=O)C(=O)NCC(=O)N[C@@H]([C@@H](C)O)C(=O)N[C@@H](CCCN)C(=O)O1`, in test [2], the IC50 was 24 nM.
As for `CCCCCCCCCCCCC[C@@H]1CC(=O)N[C@@H]([C@@H](C)O)C(=O)N[C@H](C)C(=O)N[C@@H](Cc2ccc(O)cc2)C(=O)N[C@@H](C(C)C)C(=O)N2C[C@H](O)C[C@H]2C(=O)N[C@@H]([C@@H](C)O)C(=O)N[C@@H]([C@@H](C)O)C(=O)N2CC[C@H](O)[C@H]2C(=O)N[C@@H]([C@H](O)CCN)C(=O)NCC(=O)N[C@@H]([C@@H](C)O)C(=O)N[C@@H](CCN)C(=O)O1`, the IC50 in test [3] stood at 0.18 µg/mL; in test [4], 0.01 µg/mL (≈ 0.00664 µM); in test [2] it was 6 nM; in test [5], 10 µg/mL (≈ 6.64 µM). Also, the ED50 in test [1] was determined as 0.04 mg/kg.
In test [2], `CCCCCCCCCCCCC[C@@H]1CC(=O)N[C@@H]([C@H](C)O)C(=O)N[C@H](C)C(=O)N[C@@H](Cc2ccc(OCc3ccccc3)cc2)C(=O)N[C@@H](C(C)C)C(=O)N2C[C@H](O)C[C@H]2C(=O)N[C@H]([C@@H](C)O)C(=O)N[C@@H]([C@@H](C)O)C(=O)N2CC[C@H](O)[C@H]2C(=O)N[C@@H]([C@H](O)CC(N)=O)C(=O)NCC(=O)N[C@@H]([C@@H](C)O)C(=O)N[C@@H](CCCN)C(=O)O1` yielded an IC50 of more than 130 nM.
For `CCCCCCCCCCCCC[C@@H]1CC(=O)N[C@@H]([C@@H](C)O)C(=O)N[C@H](C)C(=O)N[C@@H](Cc2ccc(O)cc2)C(=O)N[C@@H](C(C)C)C(=O)N2C[C@H](O)C[C@H]2C(=O)N[C@@H]([C@@H](C)O)C(=O)N[C@@H]([C@@H](C)O)C(=O)N2CC[C@H](O)[C@H]2C(=O)N[C@@H]([C@H](O)CC(N)=O)C(=O)NCC(=O)N[C@@H]([C@@H](C)O)C(=O)N[C@H](CCCNC(=O)C(N)CCCN)C(=O)O1` (some centres not stated), the IC50 in test [3] is 0.33 µg/mL; in test [4], 0.12 µg/mL (≈ 0.0728 µM); in test [2] it was 5 nM; in test [5], 30 µg/mL (≈ 18.2 µM). In test [1], this molecule registered an ED50 of 0.1 mg/kg.
For the molecule `CCCCCCCCCCCCC[C@@H]1CC(=O)N[C@@H]([C@@H](C)O)C(=O)N[C@H](C)C(=O)N[C@@H](Cc2ccc(O)cc2)C(=O)N[C@@H](C(C)C)C(=O)N2C[C@H](O)C[C@H]2C(=O)N[C@@H]([C@@H](C)O)C(=O)N[C@@H]([C@@H](C)O)C(=O)N2CC[C@H](O)[C@H]2C(=O)N[C@@H]([C@H](O)CC(N)=O)C(=O)NCC(=O)N[C@H]([C@@H](C)O)C(=O)N[C@@H](CCCNC(=O)CN)C(=O)O1`, it took 20 nM to reach half-maximal inhibition in test [2] (IC50).
In test [2], `CCCCCCCCCCCCC[C@@H]1CC(=O)N[C@@H]([C@H](C)O)C(=O)N[C@H](C)C(=O)N[C@@H](Cc2ccc(O)cc2)C(=O)N[C@@H](C(C)C)C(=O)N2C[C@H](O)C[C@H]2C(=O)N[C@@H]([C@@H](C)O)C(=O)N[C@@H]([C@@H](C)O)C(=O)N2CC[C@H](O)[C@H]2C(=O)N[C@@H]([C@H](O)CC(N)=O)C(=O)NCC(=O)N[C@@H]([C@@H](C)O)C(=O)N[C@@H](CCCNC(C)=O)C(=O)O1` had an IC50 of 230 nM.
As for `CCCCCCCCCCCCC[C@@H]1CC(=O)N[C@@H]([C@@H](C)O)C(=O)N[C@H](C)C(=O)N[C@@H](Cc2ccc(O)cc2)C(=O)N[C@@H](C(C)C)C(=O)N2C[C@H](O)C[C@H]2C(=O)N[C@@H]([C@@H](C)O)C(=O)N[C@@H]([C@@H](C)O)C(=O)N2CC[C@H](O)[C@H]2C(=O)N[C@@H]([C@H](O)CC(N)=O)C(=O)NCC(=O)N[C@@H]([C@@H](C)O)C(=O)N[C@@H](CCCN)C(=O)O1`, the IC50 stood at 0.57 µg/mL in test [3], 0.02 µg/mL (≈ 0.013 µM) in test [4], 12 nM in test [2] and 10 µg/mL (≈ 6.52 µM) in test [5].
